Experiments:
[1] = Stability toward hydrogen peroxide without peroxidase; type: physicochemical; conditions: absence of horseradish peroxidase, 1 mM substrate, OPD buffer pH 5.5
Excerpt: (§1) In another substrate embodiment, the dye compounds are fluorinated dyes for which R^11 is H, that are substrates for oxidative enzymes and other reactive oxidizing agents, particularly for peroxidase enzymes. […] Unlike their non-fluorinated analogs, fluorinated dihydrofluorescein and dihydrorhodol, are stable in aqueous solutions without the use of blocking groups on the hydroxyl or amine functions that typically reduce aqueous solubility. For example, Compound 84 (4,5,6,7-tetrafluorodihydrofluorescein, Example 85) is soluble in water to at least 2 mM, while existing diacetate fluorogenic peroxidase substrates are typically soluble only in the single-digit μM concentration range.
(§2) A 2 mM solution (0.5 mL) of TFDHF is prepared in water. OPD buffer (0.5M Phosphate-citrate buffer) without hydrogen peroxide (pH 5.5, 0.5 mL) is added, resulting in a 1 mM concentration of substrate. Minor background fluorescence, indicating the presence of some contaminating oxidized dye, serves to provide a fluorescence signal at time 0. […] After incubation at room temperature in darkness for 25 minutes, the reaction solution is diluted 1:20 into potassium phosphate buffer at pH 8, and fluorescence emission spectra are recorded.

Solubility in water = type: physicochemical
Excerpt: as §1

[2] = molecular target: T1, Horseradish Peroxidase (HRP) (Armoracia rusticana, UniProt P00433); test: Detection of horseradish peroxidase activity in vitro; type: biochemical; conditions: 1 mM substrate, OPD buffer with hydrogen peroxide, HRP 1 μL, 10^-4 Units
T1 sequence (P00433 31-353): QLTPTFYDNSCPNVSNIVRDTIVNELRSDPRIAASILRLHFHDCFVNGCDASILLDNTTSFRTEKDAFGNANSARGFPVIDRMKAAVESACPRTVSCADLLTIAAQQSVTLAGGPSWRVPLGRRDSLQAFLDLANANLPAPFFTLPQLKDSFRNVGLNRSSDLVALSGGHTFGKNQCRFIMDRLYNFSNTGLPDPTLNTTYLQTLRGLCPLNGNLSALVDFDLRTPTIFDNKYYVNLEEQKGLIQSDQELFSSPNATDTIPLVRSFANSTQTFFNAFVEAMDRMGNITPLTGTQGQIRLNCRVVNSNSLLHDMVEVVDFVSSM
Description: as §2, with “OPD buffer (0.5M Phosphate-citrate buffer) without hydrogen peroxide (pH 5.5, 0.5 mL) is added, resulting in a 1 mM concentration of substrate.” left out

[3] = Fluorescence response of heavy metal ion indicator; type: binding; conditions: 1 micromolar compound, 5 micromolar Cu(I), 5 mM MOPS buffer pH 7.2
Description: The tetramethyl ester intermediate is then dissolved in 15 mL 1,4-dioxane and concentrated ammonium hydroxide (0.8 mL) is added in one portion. The reaction mixture is centrifuged and the orange pellet is dissolved in 5 mL pure water, then applied to a column of lipophilic SEPHADEX […] resin and eluted with pure water. Pure column fractions are combined, frozen and lyophilized to give phenanthroline conjugate, dipotassium salt (Compound 106) as an orange powder. κ=54,479 cm^-1 M^-1 in 10 mM EGTA, 100 mM KCl, 10 mM MOPS buffer at pH 7.20.

SMILES	reaction with hydrogen peroxide alone [1]	reaction with hydrogen peroxide alone ([1]; listed as TFDHF)	soluble in water (Solubility in water)	fluorescence production on addition of HRP [2]	decrease in emission intensity at 523 nm [3]
O=C(O)c1c(F)c(F)c(F)c(F)c1C1c2ccc(O)cc2Oc2cc(O)ccc21 [Compound 84, 4,5,6,7-tetrafluorodihydrofluorescein]	stable toward reaction of hydrogen peroxide during the period of analysis	no detectable fluorescence increase	at least 2 mM	immediate production of bright yellow fluorescence	–
O=C(Nc1cc2cccnc2c2ncccc12)c1ccc2c(c1)C(=O)OC21c2cc(F)c(O)cc2Oc2cc(O)c(F)cc21 [Compound 106]	–	–	–	–	5 fold

From patent US6229055A, “Synthesis of fluorinated xanthene derivatives” (Molecular Probes, Inc., priority 2000, dated 2001)
